Data reported in ChEMBL document CHEMBL3045860, “The effect of sodium bicarbonate alone or in combination with a reduced dose of tebuconazole on the control of apple scab” (Crop Prot, 2006).

How the values were obtained:
Type in all cases: organism-based
Conditions in all cases: in vivo
Malus domestica [1] = assay: Phytotoxicity in Malus x domestica (apple) assessed as width of harvested fruit at 0.025% […] (reference value: 76 mm)
Malus domestica [2] = assay: Phytotoxicity in Malus x domestica (apple) assessed as total soluble solid of harvested fruit at 0.025% by refractometric analysis (reference value: 14%)
Malus domestica [3] = assay: Phytotoxicity in Malus x domestica (apple) assessed as mass of harvested fruit at 0.025% […] (reference value: 181 g)
Malus domestica [4] = assay: Phytotoxicity in Malus x domestica (apple) assessed as length of harvested fruit at 0.025% […] (reference value: 63.3 mm)

`CC(C)(C)C(O)(CCc1ccc(Cl)cc1)Cn1cncn1` (centres undefined) [TEBUCONAZOLE] was tested, and the Activity (Malus domestica [1]) was 80.3 mm, the Activity (Malus domestica [2]) was 14.1% and the Activity (Malus domestica [3]) was 229 g. For the same compound, the Activity (Malus domestica [4]) was 68 mm.
